From ChEMBL document CHEMBL4680144, “N-thiadiazole-4-hydroxy-2-quinolone-3-carboxamides bearing heteroaromatic rings as novel antibacterial agents: Design, synthesis, biological evaluation and target identification” (Eur J Med Chem, 2020)
In brackets after ≈: the same amount, converted by molar mass. Blank lines part the entries; values can stand above or below the compound they belong to.

Legend:
Staphylococcus aureus [1] = experiment: Antibacterial activity against wild type methicillin-sensitive Staphylococcus aureus ATCC 29213 assessed as inhibition of bacterial growth incubated for 18 to 24 hrs by broth microdilution method; type: functional; conditions: time 18-24 hrs
[2] = Inhibition of Staphylococcus aureus Gyrase B using linear pBR322 DNA as substrate incubated for 30 mins in presence of ATP by ADP-Glo assay
Staphylococcus aureus [3] = experiment: Antibacterial activity against methicillin-resistant Staphylococcus aureus clinical isolate 15-1 assessed as inhibition of bacterial growth incubated for 18 to 24 hrs by broth microdilution method; type: functional; conditions: time 18-24 hrs
Staphylococcus aureus [4] = experiment: Antibacterial activity against methicillin-resistant Staphylococcus aureus clinical isolate 15-2 assessed as inhibition of bacterial growth incubated for 18 to 24 hrs by broth microdilution method; type: functional; conditions: time 18-24 hrs
Staphylococcus aureus [5] = experiment: Antibacterial activity against methicillin-resistant Staphylococcus aureus clinical isolate 15-3 assessed as inhibition of bacterial growth incubated for 18 to 24 hrs by broth microdilution method; type: functional; conditions: time 18-24 hrs
Staphylococcus aureus [6] = experiment: Antibacterial activity against methicillin-resistant Staphylococcus aureus clinical isolate 15-6 assessed as inhibition of bacterial growth incubated for 18 to 24 hrs by broth microdilution method; type: functional; conditions: time 18-24 hrs
Staphylococcus aureus [7] = experiment: Antibacterial activity against methicillin-resistant Staphylococcus aureus clinical isolate 15-7 assessed as inhibition of bacterial growth incubated for 18 to 24 hrs by broth microdilution method; type: functional; conditions: time 18-24 hrs
Staphylococcus aureus [8] = experiment: Antibacterial activity against methicillin-resistant Staphylococcus aureus clinical isolate 15-8 assessed as inhibition of bacterial growth incubated for 18 to 24 hrs by broth microdilution method; type: functional; conditions: time 18-24 hrs
Staphylococcus aureus [9] = experiment: Antibacterial activity against methicillin-resistant Staphylococcus aureus clinical isolate 15-9 assessed as inhibition of bacterial growth incubated for 18 to 24 hrs by broth microdilution method; type: functional; conditions: time 18-24 hrs
Staphylococcus aureus [10] = experiment: Antibacterial activity against methicillin resistant and vancomycin-intermediate sensitive Staphylococcus aureus ATCC 700699 assessed as inhibition of bacterial growth incubated for 18 to 24 hrs by broth microdilution method; type: functional; conditions: time 18-24 hrs
Staphylococcus aureus [11] = experiment: Antibacterial activity against methicillin resistant and vancomycin-intermediate sensitive Staphylococcus aureus ATCC 700788 assessed as inhibition of bacterial growth incubated for 18 to 24 hrs by broth microdilution method; type: functional; conditions: time 18-24 hrs
[12] = system: Staphylococcus epidermidis; experiment: Antibacterial activity against methicillin-sensitive Staphylococcus epidermidis clinical isolate 15-3 assessed as inhibition of bacterial growth incubated for 18 to 24 hrs by broth microdilution method; type: functional; conditions: time 18-24 hrs
[13] = system: Staphylococcus epidermidis; experiment: Antibacterial activity against methicillin-sensitive Staphylococcus epidermidis clinical isolate 15-4 assessed as inhibition of bacterial growth incubated for 18 to 24 hrs by broth microdilution method; type: functional; conditions: time 18-24 hrs
[14] = system: Staphylococcus epidermidis; experiment: Antibacterial activity against methicillin-resistant Staphylococcus epidermidis clinical isolate 15-1 assessed as inhibition of bacterial growth incubated for 18 to 24 hrs by broth microdilution method; type: functional; conditions: time 18-24 hrs
[15] = system: Staphylococcus epidermidis; experiment: Antibacterial activity against methicillin-resistant Staphylococcus epidermidis clinical isolate 15-2 assessed as inhibition of bacterial growth incubated for 18 to 24 hrs by broth microdilution method; type: functional; conditions: time 18-24 hrs
[16] = system: Staphylococcus epidermidis; experiment: Antibacterial activity against methicillin-resistant Staphylococcus epidermidis clinical isolate 15-3 assessed as inhibition of bacterial growth incubated for 18 to 24 hrs by broth microdilution method; type: functional; conditions: time 18-24 hrs
Enterococcus faecalis [17] = experiment: Antibacterial activity against Enterococcus faecalis clinical isolate 15-1 assessed as inhibition of bacterial growth incubated for 18 to 24 hrs by broth microdilution method; type: functional; conditions: time 18-24 hrs
Enterococcus faecalis [18] = experiment: Antibacterial activity against Enterococcus faecalis clinical isolate 15-2 assessed as inhibition of bacterial growth incubated for 18 to 24 hrs by broth microdilution method; type: functional; conditions: time 18-24 hrs
Enterococcus faecium [19] = experiment: Antibacterial activity against Enterococcus faecium clinical isolate 15-1 assessed as inhibition of bacterial growth incubated for 18 to 24 hrs by broth microdilution method; type: functional; conditions: time 18-24 hrs
Enterococcus faecium [20] = experiment: Antibacterial activity against Enterococcus faecium clinical isolate 15-2 assessed as inhibition of bacterial growth incubated for 18 to 24 hrs by broth microdilution method; type: functional; conditions: time 18-24 hrs
Enterococcus faecalis [21] = experiment: Antibacterial activity against vancomycin-resistant Enterococcus faecalis ATCC 51299 assessed as inhibition of bacterial growth incubated for 18 to 24 hrs by broth microdilution method; type: functional; conditions: time 18-24 hrs
Enterococcus faecalis [22] = experiment: Antibacterial activity against vancomycin-resistant Enterococcus faecalis ATCC 700802 assessed as inhibition of bacterial growth incubated for 18 to 24 hrs by broth microdilution method; type: functional; conditions: time 18-24 hrs
Enterococcus faecalis [23] = experiment: Antibacterial activity against vancomycin-resistant Enterococcus faecalis ATCC 51575 assessed as inhibition of bacterial growth incubated for 18 to 24 hrs by broth microdilution method; type: functional; conditions: time 18-24 hrs

MIC (Staphylococcus aureus [1]): 12.5 µg/mL (≈ 31.4 µM)
IC50 [2]: 550 nM
SMILES: CCn1c(=O)c(C(=O)Nc2nnc(C3CCCCC3)s2)c(O)c2ccccc21

MIC (Staphylococcus aureus [1]): 1.56 µg/mL (≈ 3.69 µM)
IC50 [2]: 2170 nM
SMILES: CCn1c(=O)c(C(=O)Nc2nnc(-c3cccc(OC)c3)s2)c(O)c2ccccc21

MIC (Staphylococcus aureus [1]): 6.25 µg/mL (≈ 15.4 µM)
IC50 [2]: 640 nM
SMILES: CCn1c(=O)c(C(=O)Nc2nnc(-c3ccc(C)cc3)s2)c(O)c2ccccc21

MIC (Staphylococcus aureus [1]): 100 µg/mL (≈ 229 µM)
IC50 [2]: 2300 nM
SMILES: CCOc1ccc(-c2nnc(NC(=O)c3c(O)c4ccccc4n(CC)c3=O)s2)cc1

MIC (Staphylococcus aureus [1]): 3.12 µg/mL (≈ 7.83 µM)
IC50 [2]: 220 nM
SMILES: CCn1c(=O)c(C(=O)Nc2nnc(-c3cccs3)s2)c(O)c2ccccc21

MIC (Staphylococcus aureus [1]): 3.12 µg/mL (≈ 7.16 µM)
IC50 [2]: 2660 nM
SMILES: CCn1c(=O)c(C(=O)Nc2nnc(-c3ccc(N(C)C)cc3)s2)c(O)c2ccccc21

MIC (Staphylococcus aureus [1]): 12.5 µg/mL (≈ 30.5 µM)
IC50 [2]: 990 nM
SMILES: CCn1c(=O)c(C(=O)Nc2nnc(-c3ccccc3F)s2)c(O)c2ccccc21

MIC (Staphylococcus aureus [1]): 12.5 µg/mL (≈ 26.5 µM)
IC50 [2]: 2190 nM
SMILES: CCn1c(=O)c(C(=O)Nc2nnc(-c3ccc(Br)cc3)s2)c(O)c2ccccc21

SMILES: CCCc1nnc(NC(=O)c2c(O)c3ccccc3n(CC)c2=O)s1
MIC (Staphylococcus aureus [1]): 0.39 µg/mL (≈ 1.09 µM)
MIC (Staphylococcus aureus [3]): 2 µg/mL (≈ 5.58 µM)
MIC (Staphylococcus aureus [4]): 2 µg/mL (≈ 5.58 µM)
MIC (Staphylococcus aureus [5]): 2 µg/mL (≈ 5.58 µM)
MIC (Staphylococcus aureus [6]): 2 µg/mL (≈ 5.58 µM)
MIC (Staphylococcus aureus [7]): 4 µg/mL (≈ 11.2 µM)
MIC (Staphylococcus aureus [8]): 2 µg/mL (≈ 5.58 µM)
MIC (Staphylococcus aureus [9]): 4 µg/mL (≈ 11.2 µM)
MIC (Staphylococcus aureus [10]): 4 µg/mL (≈ 11.2 µM)
MIC (Staphylococcus aureus [11]): 4 µg/mL (≈ 11.2 µM)
MIC [12]: 2 µg/mL (≈ 5.58 µM)
MIC [13]: 2 µg/mL (≈ 5.58 µM)
MIC [14]: 2 µg/mL (≈ 5.58 µM)
MIC [15]: 4 µg/mL (≈ 11.2 µM)
MIC [16]: 2 µg/mL (≈ 5.58 µM)
MIC (Enterococcus faecalis [17]): 4 µg/mL (≈ 11.2 µM)
MIC (Enterococcus faecalis [18]): 4 µg/mL (≈ 11.2 µM)
MIC (Enterococcus faecium [19]): 2 µg/mL (≈ 5.58 µM)
MIC (Enterococcus faecium [20]): 4 µg/mL (≈ 11.2 µM)
MIC (Enterococcus faecalis [21]): 8 µg/mL (≈ 22.3 µM)
MIC (Enterococcus faecalis [22]): 8 µg/mL (≈ 22.3 µM)
MIC (Enterococcus faecalis [23]): 8 µg/mL (≈ 22.3 µM)
IC50 [2]: 270 nM

MIC (Staphylococcus aureus [1]): 3.12 µg/mL (≈ 8.75 µM)
IC50 [2]: 580 nM
SMILES: CCn1c(=O)c(C(=O)Nc2nnc(C3CC3)s2)c(O)c2ccccc21

MIC (Staphylococcus aureus [1]): 1.56 µg/mL (≈ 4.93 µM)
IC50 [2]: 110 nM
SMILES: CCn1c(=O)c(C(=O)Nc2nncs2)c(O)c2ccccc21

MIC (Staphylococcus aureus [1]): 6.25 µg/mL (≈ 16.3 µM)
IC50 [2]: 550 nM
SMILES: CCn1c(=O)c(C(=O)Nc2nnc(C3CCCC3)s2)c(O)c2ccccc21

MIC (Staphylococcus aureus [1]): 1.56 µg/mL (≈ 3.97 µM)
IC50 [2]: 240 nM
SMILES: CCn1c(=O)c(C(=O)Nc2nnc(-c3ccncc3)s2)c(O)c2ccccc21

MIC (Staphylococcus aureus [1]): 12.5 µg/mL (≈ 28.6 µM)
IC50 [2]: 2350 nM
SMILES: CCOc1ccccc1-c1nnc(NC(=O)c2c(O)c3ccccc3n(CC)c2=O)s1

MIC (Staphylococcus aureus [1]): 3.12 µg/mL (≈ 7.39 µM)
IC50 [2]: 1140 nM
SMILES: CCn1c(=O)c(C(=O)Nc2nnc(-c3ccc(OC)cc3)s2)c(O)c2ccccc21

SMILES: CCn1c(=O)c(C(=O)Nc2nnc(C)s2)c(O)c2ccccc21
MIC (Staphylococcus aureus [1]): 0.78 µg/mL (≈ 2.36 µM)
MIC (Staphylococcus aureus [3]): 2 µg/mL (≈ 6.05 µM)
MIC (Staphylococcus aureus [4]): 4 µg/mL (≈ 12.1 µM)
MIC (Staphylococcus aureus [5]): 2 µg/mL (≈ 6.05 µM)
MIC (Staphylococcus aureus [6]): 2 µg/mL (≈ 6.05 µM)
MIC (Staphylococcus aureus [7]): 4 µg/mL (≈ 12.1 µM)
MIC (Staphylococcus aureus [8]): 2 µg/mL (≈ 6.05 µM)
MIC (Staphylococcus aureus [9]): 4 µg/mL (≈ 12.1 µM)
MIC (Staphylococcus aureus [10]): > 64 µg/mL
MIC (Staphylococcus aureus [11]): > 64 µg/mL
MIC [12]: > 64 µg/mL
MIC [13]: > 64 µg/mL
MIC [14]: > 64 µg/mL
MIC [15]: > 64 µg/mL
MIC (Enterococcus faecalis [17]): > 64 µg/mL
MIC (Enterococcus faecalis [18]): > 64 µg/mL
MIC (Enterococcus faecium [19]): > 64 µg/mL
MIC (Enterococcus faecium [20]): > 64 µg/mL
MIC (Enterococcus faecalis [21]): > 64 µg/mL
MIC (Enterococcus faecalis [22]): > 64 µg/mL
MIC (Enterococcus faecalis [23]): > 64 µg/mL
IC50 [2]: 240 nM

MIC (Staphylococcus aureus [1]): 25 µg/mL (≈ 60.9 µM)
IC50 [2]: 2300 nM
SMILES: CCn1c(=O)c(C(=O)Nc2nnc(-c3ccc(F)cc3)s2)c(O)c2ccccc21
